Assay results as given in US10745735B2 (priority 2013, dated 2020).

Key:
BL21 E. coli [1] = assay: Capture of HPG-labeled, biotin-azide reacted E. coli on streptavidin-coated magnetic beads; format: cell-based; conditions: biotin-azide 100 μM, M280 Dynabeads 1 hour
Excerpt: (§1) FIG. 6: Capture via unnatural amino acid metabolic labeling of live gram negative (E. coli) and gram positive (L. innocua) bacteria.
(§2) E. coli and L. innocua cells metabolically labeled by HPG were further investigated to determine if they could be captured on a surface via the incorporated amino acid analogue.

BL21 E. coli [2] = assay: Dual metabolic labeling (HPG and KDO-azide) of BL21 E. coli, fluorescence and bead capture; format: cell-based; conditions: HPG and KDO-azide together
Protocol: FIG. 10: Dual metabolic label incorporation, fluorescence labeling and capture of live lab strain E. coli. […] The cells were first reacted with biotin-azide to biotinylate surface proteins, then reacted with Alexa488-alkyne to fluorescently label LPS molecules. Surface biotinylation was either fluorescently detected after incubation with Cy3-streptavidin (top panels), or bacteria were captured after incubation with streptavidin-coated magnetic beads (bottom panels). Fluorescence levels are adjusted above background detected for cells grown in the presence of KDO and methionine.
Beyond identification of living cells, this method has the potential to discriminate between gram positive and gram negative bacteria as functionalized KDO will only be incorporated into LPS of gram negative cells, whereas HPG should not discriminate between the two. This method may also be used to capture living bacteria via incorporation of HPG, and fluorescent identification of gram negative strains via incorporation of KDO-azide. […] Methionine biosynthesis was then inhibited and either methionine or HPG were added to the cultures and incubated for 16 hours. Cells were reacted with biotin-azide to label surface proteins containing HPG, then reacted with Alexa488-alkyne to fluorescently label LPS containing KDO-azide. […]

K12 E. coli = assay: Immunocapture with anti-E. coli antibody beads and HPG metabolic labeling of K12 E. coli; format: cell-based; conditions: 30 minutes in M9 media, anti-E. coli antibody beads, Alexa488-azide
Protocol: FIG. 11: Metabolic label incorporation, immunocapture and fluorescence identification of live K12 strain E. coli. […] M280 streptavidin-coated magnetic beads treated with PBS (“Untreated”) or PBS containing biotin-tagged Anti-E. coli antibody were then added to the culture for 1 hour before the beads were washed in PBS and reacted with Alexa488-azide to fluorescently label surface proteins. Fluorescence levels are adjusted above background detected for cells grown in the presence of methionine.
Metabolic labeling is compatible with strain-specific immunocapture using magnetic beads coated with antibodies directed to specific bacteria. This method has the potential to concentrate specific strains of bacteria from food or water samples, while simultaneously allowing bacteria to acquire the functionalized biomolecular precursor and incorporate it in target biomolecules. Captured bacteria are then identified as living or dead by a subsequent bioorthogonal reaction and detection by fluorescence microscopy. […] M280 magnetic beads treated with PBS or biotin-tagged anti-E. coli antibody were co-incubated with the E. coli. Bacteria/bead aggregates were washed in PBS, then reacted with Alexa488-azide to fluorescently identify living bacteria captured on the M280 magnetic beads.

[3] = system: Listeria innocua strains HPB 34 and 118; assay: Metabolic labeling of Listeria innocua with HPG, Alexa488-azide, fluorescence microscopy; format: cell-based; conditions: HPG 100 μg/ml, HTM minimal medium, 16 h at 30° C.
Protocol: In addition to gram negative E. coli strains, gram positive Listeria strains were investigated to probe the diversity of bacteria susceptible to this labeling strategy. Two strains of Listeria innocua were cultured in HTM minimal medium containing the methionine biosynthesis inhibition amino acids, in the presence of methionine (100 μg/ml) or HPG (100 μg/ml) for 16 h at 30° C., then reacted with Alexa488-azide as described earlier.

[4] = system: verotoxin producing E. coli (VTEC) cells; format: cell-based
L. innocua = assay: Capture of HPG-labeled, biotin-azide reacted L. innocua on streptavidin-coated magnetic beads; format: cell-based, Listeria innocua; conditions: biotin-azide 100 μM, M280 Dynabeads 1 hour
Excerpt: as §1, §2

[5] = system: VTEC strain of serotype O45:H2; assay: Metabolic labeling of VTEC O45:H2 with KDO-alkyne, Alexa488-azide, fluorescence microscopy; format: cell-based, E. coli; conditions: overnight culture
Excerpt: Metabolic labeling of VTEC was also investigated to determine if this labeling strategy could be applied to the detection of live pathogenic bacteria. […] Therefore, targeting LPS of bacteria with a KDO analogue can also be used to identify contamination by living pathogenic strains of E. coli.

Row | Compound | capture on streptavidin coated beads via incorporated HPG (BL21 E. coli [1]) | dual metabolic label incorporation (BL21 E. coli [2]) | identification of captured bacteria as living by fluorescence (K12 E. coli) | fluorescence labeling after reaction with Alexa488-azide [3] | contact time after which metabolic label incorporation is detected [4] | fluorescence labeling after reaction with Alexa488-azide [4] | capture on streptavidin coated beads via incorporated HPG (L. innocua) | incorporation into LPS molecules [5]
1 | C#CCCC(N)C(=O)O (stereo not drawn) [HPG, homopropargylglycine] | multiple E. coli and L. innocua cells bound to the streptavidin coated beads | capable of incorporating both | identified as being alive | labeled efficiently | 30 min | fluorescently labeled | multiple E. coli and L. innocua cells bound to the streptavidin coated beads | 
2 | C#CCCC(=O)NC[C@@H](O)C1OC(O)(C(=O)O)C[C@@H](O)[C@H]1O (stereo partly drawn) [KDO-alkyne] |  |  |  |  |  |  |  | capable of incorporating KDO-alkyne into LPS molecules
3 | [N-]=[N+]=NC[C@@H](O)C1OC(O)(C(=O)O)C[C@@H](O)[C@H]1O (stereo partly drawn) [KDO-azide] |  | capable of incorporating both |  |  |  |  |  | 
